Data on 55 compounds can be found in PubChem BioAssay AID1117355 (Cheminformatics & Chemogenomics Research Group (CCRG), …, 2015).

The source made the active and inactive calls. The rule behind the calls is not given here.

In the experiment the target is Glycogen synthase kinase-3 beta (Homo sapiens) (UniProt P49841). Nature of the experiment: NPC library primary assay, GSK-3β enzyme inhibitors, biochemical, Homo sapiens, LANCE Ultra TR-FRET detection (AID 1117355). Conditions: LANCE Ultra TR-FRET kinase activity; at 20 µM (top of the series).
Chain of Glycogen synthase kinase-3 beta (Homo sapiens) (P49841 whole entry, looked up): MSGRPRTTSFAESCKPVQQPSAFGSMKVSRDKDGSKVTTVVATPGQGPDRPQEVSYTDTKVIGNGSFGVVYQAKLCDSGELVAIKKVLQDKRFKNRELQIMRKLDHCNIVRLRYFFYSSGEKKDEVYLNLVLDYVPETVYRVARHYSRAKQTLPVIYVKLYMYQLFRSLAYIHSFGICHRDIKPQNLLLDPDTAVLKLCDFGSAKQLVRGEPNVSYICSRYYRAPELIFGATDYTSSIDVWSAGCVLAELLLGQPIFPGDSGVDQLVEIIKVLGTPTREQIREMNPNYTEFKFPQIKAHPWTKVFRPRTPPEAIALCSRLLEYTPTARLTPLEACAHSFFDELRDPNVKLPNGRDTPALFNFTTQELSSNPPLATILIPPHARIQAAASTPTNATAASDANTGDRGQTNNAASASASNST
One may read the inhibition as the relative decrease from the control value, in per cent. As for `CC(C)C[C@H](NC(=O)[C@H](Cc1ccccc1)NC(=O)c1cnccn1)B(O)O`, the inhibition is 1.64% (inactive).
For `COC(=O)[C@H]1[C@H]2C[C@@H]3c4[nH]c5cc(OC)ccc5c4CCN3C[C@H]2C[C@@H](OC(=O)/C=C/c2ccc(O)c(OC)c2)[C@@H]1OC`, the inhibition is 7.56% (inactive).
The figure for `Oc1c(Cl)cc(Cl)cc1Sc1cc(Cl)cc(Cl)c1O` is 81.3%; for `CSc1ccc2c(c1)C(N1CCN(C)CC1)Cc1ccccc1S2` (stereo not given) it is 0.73% (inactive); for `CN(C)c1ccc2nc3ccc(=[N+](C)C)cc-3sc2c1` it is -210% (inactive).
Regarding `O=C1c2c(O)ccc(O)c2C(=O)c2c(NCCNCCO)ccc(NCCNCCO)c21`, the inhibition was -5.18% (inactive).
Next, `CCc1nc(N)nc(N)c1-c1ccc(Cl)cc1`: -8.63% (inactive).
The figure for `COc1ccc2cc1Oc1ccc(cc1)C[C@H]1c3c(cc4c(c3Oc3cc5c(cc3OC)CCN(C)[C@@H]5C2)OCO4)CCN1C` is 2.24% (inactive); for `O=C(O)c1ccc(-n2nc(-c3ccccc3O)nc2-c2ccccc2O)cc1` it is 37.5% (inactive); for `CCN(CC)CCOc1ccc(/C(=C(\Cl)c2ccccc2)c2ccccc2)cc1` it is -11.9% (inactive).
Next, `COc1cc(NCc2ccc3nc(N)nc(N)c3c2C)cc(OC)c1OC`: 2.46% (inactive); `O=c1[nH]c(=O)n([C@H]2C[C@H](O)[C@@H](CO)O2)cc1C(F)(F)F`: 17.2% (inactive).
`CCCCc1oc2ccccc2c1C(=O)c1cc(I)c(OCCN(CC)CC)c(I)c1`: the inhibition was 26% (inactive).
Take `CCCOc1ccc2nc(NC(=O)OC)[nH]c2c1`: the inhibition was -5.09% (inactive).
The figure for `COc1cc([C@@H]2c3cc4c(cc3[C@H](O)[C@H]3COC(=O)[C@H]23)OCO4)cc(OC)c1OC` is 26.6% (inactive).
The figure for `CCC1=C[C@@H]2CN(C1)Cc1c([nH]c3ccccc13)[C@@](C(=O)OC)(c1cc3c(cc1OC)N(C)[C@H]1[C@@](O)(C(=O)OC)[C@H](OC(C)=O)[C@]4(CC)C=CCN5CC[C@]31[C@@H]54)C2` is 24.2% (inactive); for `O=c1c(-c2ccccc2)c1-c1ccccc1` it is 31.4% (inactive).
Next, `CC(C)C[C@H](NC(=O)[C@H](CCc1ccccc1)NC(=O)CN1CCOCC1)C(=O)N[C@@H](Cc1ccccc1)C(=O)N[C@@H](CC(C)C)C(=O)[C@@]1(C)CO1`: 20.4% (inactive).
Take `CCCCCCNC(=O)n1cc(F)c(=O)[nH]c1=O`: the inhibition is -7.61% (inactive).
The figure for `S=c1nc[nH]c2nc[nH]c12` is 20.7% (inactive).
Turning to `CCCCCCCCCCCCCCCCCCNC(=O)OC1CCN(C(=O)OC[C@H](COC(=O)N(Cc2cccc[n+]2CC)C(=O)c2ccccc2OC)OC)CC1`, the inhibition is 24% (inactive).
The figure for `COc1ccc(-c2ccc3cc(C(=O)O)ccc3c2)cc1C12CC3CC(CC(C3)C1)C2` is 79.4%; for `COC(=O)Nc1nc2ccc(C(=O)c3cccs3)cc2[nH]1` it is 42.2% (inactive).
Next, `COCc1c(C(C)C)nc(C(C)C)c(/C=C/[C@@H](O)C[C@@H](O)CC(=O)O)c1-c1ccc(F)cc1`: 3.27% (inactive); `CC[C@@]1(O)C(=O)OCc2c1cc1n(c2=O)Cc2c-1nc1ccccc1c2/C=N/OC(C)(C)C`: 16.9% (inactive).
The figure for `CC[C@@H]([C@H](C)O)n1ncn(-c2ccc(N3CCN(c4ccc(OC[C@@H]5CO[C@@](Cn6cncn6)(c6ccc(F)cc6F)C5)cc4)CC3)cc2)c1=O` is 8.55% (inactive); for `Cc1ccc([N+](=O)[O-])[c]2c1[O][Hg]2` it is 66.1%; for `Cc1ccccc1C(=O)Nc1ccc(C(=O)N2CCCC(N(C)C)c3ccccc32)cc1` (stereo not given) it is 18.2% (inactive).
On to `C[C@@]12C(=O)OC(=O)[C@]1(C)C1CCC2O1`, for which the inhibition is 2.16% (inactive).
Turning to `C=CC(=O)Nc1cc2c(Nc3ccc(F)c(Cl)c3)ncnc2cc1OCCCN1CCOCC1`, the inhibition is 31.2% (inactive).
For the compound `O=C(Nc1ccc([N+](=O)[O-])cc1Cl)c1cc(Cl)ccc1O`, the inhibition is -11.3% (inactive).
As for `Cc1cc(O)c2ccccc2c1O`, the inhibition is 50.4%.
Take `NC(=NCCCCCCN=C(N)/N=C(\N)Nc1ccc(Cl)cc1)/N=C(\N)Nc1ccc(Cl)cc1`: the inhibition was 0.77% (inactive).
Next, `CCC(C)n1ncn(-c2ccc(N3CCN(c4ccc(OC[C@H]5CO[C@](Cn6cncn6)(c6ccc(Cl)cc6Cl)O5)cc4)CC3)cc2)c1=O` (stereo not given in full): 14.1% (inactive); `COC(=O)Nc1nc2ccc(C(=O)C3CC3)cc2[nH]1`: 54.4%; `CC[C@]1(O)C[C@@H]2CN(CCc3c([nH]c4ccccc34)[C@@](C(=O)OC)(c3cc4c(cc3OC)N(C)[C@H]3[C@@](O)(C(=O)OC)[C@H](OC(C)=O)[C@]5(CC)C=CCN6CC[C@]43[C@@H]65)C2)C1`: -4.66% (inactive).
In the case of `COc1ccc(-c2nc3ccc(C4=NNC(=O)CC4C)cc3[nH]2)cc1` (stereo not given), the inhibition was -64.9% (inactive).
The figure for `COC(=O)Nc1nc2ccc(S(=O)c3ccccc3)cc2[nH]1` (stereo not given) is -3.53% (inactive); for `CCCCC1C(=O)N(c2ccccc2)N(c2ccc(O)cc2)C1=O` (stereo not given) it is 5.48% (inactive).
Regarding `Cc1cc(=O)c2c(O)c3c(O)cc(=O)c4c3c3c(cc(O)c1c23)C(C)(C)C=4O`, the inhibition was 60.6%.
Next, `Cc1cc(C)c(/C=C2\C(=O)Nc3ccccc32)[nH]1`: -34.3% (inactive); `COC(=O)c1nc(Cl)c(Cl)nc1N`: 20.8% (inactive).
Take `O=C(CCCCCCC(=O)Nc1ccccc1)NO`: the inhibition is -28.8% (inactive).
Next, `Cc1nc2ccc(CN(C)c3ccc(C(=O)N[C@@H](CCC(=O)O)C(=O)O)s3)cc2c(=O)[nH]1`: 81.3%.
Next, `CN1CC[C@H](c2c(O)cc(O)c3c(=O)cc(-c4ccccc4Cl)oc23)[C@H](O)C1`: 99.9%; `O=C(CCl)c1ccc(Cl)cc1Cl`: 9.91% (inactive).
As for `Cc1nc(N)nc(N)c1-c1ccc(Cl)c(Cl)c1`, the inhibition is -1.14% (inactive).
The figure for `Cc1ccc2nc(N)[nH]c(=O)c2c1Sc1ccncc1` is -35.9% (inactive); for `Oc1c(Cl)cc(Cl)c2cccnc12` it is -26.5% (inactive).
Next, `CC(C)(C)C(=O)OCOP(=O)(COCCn1cnc2c(N)ncnc21)OCOC(=O)C(C)(C)C`: 7.97% (inactive); `CC[C@]1(O)C[C@H]2CN(CCc3c([nH]c4ccccc34)[C@@](C(=O)OC)(c3cc4c(cc3OC)N(C=O)[C@H]3[C@@](O)(C(=O)OC)[C@H](OC(C)=O)[C@]5(CC)C=CCN6CC[C@]43[C@@H]65)C2)C1`: -0.84% (inactive); `C[n+]1c2cc(N)ccc2cc2ccc(N)cc21` (tested in a mixture with another compound): -24.7% (inactive).
The figure for `COc1cc2nc(N3CCN(C(=O)c4ccco4)CC3)nc(N)c2cc1OC` is -50.4% (inactive); for `CC(C)(C)C1CCC(CC2=C(O)c3ccccc3C(=O)C2=O)CC1` (stereo not given) it is 10.2% (inactive); for `O=C(NOCC1CC1)c1ccc(F)c(F)c1Nc1ccc(I)cc1Cl` it is -12.6% (inactive).
